Earlier results in publication PMC7493416 (ACS Sustainable Chemistry & Engineering, 2019).

Legend:
[1] = general statement, no reference given

| Solubility in water [1] | SMILES | Reproductive toxicity |
| --- | --- | --- |
| – | CN(C)C=O [DMF, dimethylformamide] | display reproductive toxicity |
| – | CN1CCCC1=O [NMP, N-methylpyrrolidone] | display reproductive toxicity |
| insoluble in water | O=C1CCCCCC1 [cycloheptanone] | – |
